Each structure is given as a SMILES string. Where a name gives a salt, the structure may show the parent alone.

The term IC90 denotes the point of the concentration-response curve where the effect stands at 90%.

The first assay has as its system Acinetobacter baumannii ATCC17961. The assay is described as follows: Antimicrobial susceptibility testing: 90% growth inhibitory concentration (IC90) determination in Iso-Sensitest broth, OD600 growth. It counts as cell-based. The settings on record: Acinetobacter baumannii, ATCC17961, 16 h, read-out: A. baumannii ATCC 17961 IC90 (uM), strain ATCC 17961, OD600 growth over 16 h. Put shortly: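 Serial twofold dilution, 10 points, e.g. 50–0.097 μM final; ~5×10^(5) CFU/ml; 35±2° C, 16 h; kinetic OD600 every 20 min; IC90 from log-phase inhibition.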
With `O=C(N[C@@H]1CCNC1)N1CCN(C(=O)c2ccc(Nc3nccn4c(-c5c[nH]nc5C(F)(F)F)cnc34)cc2Cl)CC1` [Example 391, 4-[2-chloro-4-[[3-[3-(trifluoromethyl)-1H-pyrazol-4-yl]imidazo[1,2-a]pyrazin-8-yl]amino]benzoyl]-N-[(3R)-pyrrolidin-3-yl]piperazine-1-carboxamide formate], the IC90 worked out at 0.203 µM.
`Cc1cc(Nc2nccn3c(-c4cn(CC#N)nc4C(F)(F)F)cnc23)ccc1C(=O)NCCCNC(=O)[C@@H]1C[C@@H](O)CN1` [Example 367, (2S,4R)-N-[3-[[4-[[3-[1-(cyanomethyl)-3-(trifluoromethyl)pyrazol-4-yl]imidazo[1,2-a]pyrazin-8-yl]amino]-2-methylbenzoyl]amino]propyl]-4-hydroxypyrrolidine-2-carboxamide formate]: the IC90 came out at 0.468 µM.
For `CCc1cc(Nc2nccn3c(-c4cn(CC#N)nc4C(F)(F)F)cnc23)ccc1C(=O)N[C@H](C)C(=O)N1CC[C@H](N)C1` [Example 736, N-[(1R)-2-[(3S)-3-aminopyrrolidin-1-yl]-1-methyl-2-oxo-ethyl]-4-[[3-[1-(cyanomethyl)-3-(trifluoromethyl)pyrazol-4-yl]imidazo[1,2-a]pyrazin-8-yl]amino]-2-ethyl-benzamide formate], the IC90 came to 0.49 µM.
Turning to `N=C(N)NC[C@H](N)C(=O)NCCCNC(=O)c1ccc(Nc2nccn3c(-c4c[nH]nc4C(F)(F)F)cnc23)cc1Cl` [Example 211, N-[3-[[(2S)-2-amino-3-carbamimidamidopropanoyl]amino]propyl]-2-chloro-4-[[3-[3-(trifluoromethyl)-1H-pyrazol-4-yl]imidazo[1,2-a]pyrazin-8-yl]amino]benzamide formate], the IC90 was found to be 0.284 µM.

The same assay, now with this note: Acinetobacter baumannii, ATCC17961, 16 h, strain ATCC 17961, OD600 growth over 16 h, read-out: A. baumannii ATCC 17961 IC90.
Consider `Cc1cc(Nc2nccn3c(-c4cn(CC#N)nc4C(F)(F)F)cnc23)ccc1C(=O)NCC(=O)N1CCNCC1` [Example 706, 4-[[3-[1-(cyanomethyl)-3-(trifluoromethyl)pyrazol-4-yl]imidazo[1,2-a]pyrazin-8-yl]amino]-2-methyl-N-(2-oxo-2-piperazin-1-yl-ethyl) benzamide formate], for which the IC90 turned out to be 0.394 µM.
Regarding `CCc1cc(Nc2nccn3c(-c4cn(CC#N)nc4C(F)(F)F)cnc23)ccc1C(=O)NCCCCCCN` [Example 227, N-(6-aminohexyl)-4-[[3-[1-(cyanomethyl)-3-(trifluoromethyl)pyrazol-4-yl]imidazo[1,2-a]pyrazin-8-yl]amino]-2-ethylbenzamide], the IC90 was 0.17 µM.
On to `N[C@H]1CCN(C(=O)CNC(=O)c2ccc(Nc3nccn4c(-c5c[nH]nc5C(F)(F)F)cnc34)cc2Cl)C1` [Example 164, N-[2-[(3S)-3-aminopyrrolidin-1-yl]-2-oxoethyl]-2-chloro-4-[[3-[3-(trifluoromethyl)-1H-pyrazol-4-yl]imidazo[1,2-a]pyrazin-8-yl]amino]benzamide], for which the IC90 came to 1.93 µM.
Turning to `O=C(CNCCNC(=O)c1ccc(Nc2nccn3c(-c4cn(CC(F)F)nc4C(F)(F)F)cnc23)cc1Cl)N[C@H]1CCNC1` [Example 822, (S)-2-chloro-4-(3-(1-2,2-difluoroethyl)-3-(trifluoromethyl)-1H-pyrazol-4-yl)imidazo[1,2-a]pyrazin-8-yl)amino)-N-(2-((2-oxo-2-(pyrrolidin-3-ylamino)ethyl) amino)ethyl) benzamide formate], the IC90 amounted to 0.15 µM.
Same read-out and setting: for `Cc1cc(Nc2nccn3c(-c4c[nH]nc4C(F)(F)F)cnc23)ccc1C(=O)N1CCN(C(=O)NCC2CNC2)CC1` [Example 410, N-(azetidin-3-ylmethyl)-4-[2-methyl-4-[[3-[3-(trifluoromethyl)-1H-pyrazol-4-yl]imidazo[1,2-a]pyrazin-8-yl]amino]benzoyl]piperazine-1-carboxamide] the value was 1.42 µM.
The same measure, in the same setting: for `Cc1cc(Nc2nccn3c(-c4c[nH]nc4C(F)(F)F)cnc23)ccc1C(=O)N1CCN(C(=O)C2(O)CCCNC2)CC1` (stereo not shown) [Example 436, [4-(3-hydroxypiperidine-3-carbonyl)piperazin-1-yl]-[2-methyl-4-[[3-[3-(trifluoromethyl)-1H-pyrazol-4-yl]imidazo[1,2-a]pyrazin-8-yl]amino]phenyl]methanone hydrochloride] the value was 0.536 µM.

The values above are taken from patent US20230203043A1, “NOVEL IMIDAZOPYRAZINE DERIVATIVES” (Hoffmann-La Roche Inc., priority 2020, published 2023).
